“Also recorded” adds a separate entry of the source.
How the values were obtained:
[1] = test system: differentiated CD56+ NK cells; assay: Flow cytometry of NK cell, maturity and T cell markers on differentiated CD56+ NK cells at day 28; format: cell-based, Human
Protocol: CD56^+ NK cells were differentiated as described in Examples 1 and 2 in the presence of 1 μM UM729 and analyzed on day 28 by flow cytometry for the expression of known NK cell markers. Cells were stained with fluorescence-conjugated antibodies against indicated NK cell markers for 15 min at 4° C. Non-specific binding was blocked using FcR blocker and 5% human or rat serum. Dead cells were excluded by light scatter profile and 7-AAD or DRAQ7 staining. Prepared samples were analyzed by flow cytometry.
CD56^+ NK cells were differentiated as described in Examples 1 and 2 in the presence of 1 μM UM729 and analyzed on day 28 by flow cytometry for the expression of known NK cell markers. The cells were stained for the markers described in this Example essentially as described in Example 3. Staining for KIR molecules was performed using a combination of two clones for the antibody, 180704 and HP-MA4, as each recognizes a distinct subset of KIR molecules. Dead cells were excluded by light scatter profile and 7-AAD or DRAQ7 staining.
Production of IFNγ by the differentiated CD56^+ NK cells was also measured. For IFNγ intracellular staining, differentiated CD56^+ NK Cells were stimulated with PMA/Ionomycin for 2 hours. Brefeldin A was added and the cells were incubated for another 2 hours. The cells were harvested and stained for CD56 and Zombie NIR viability dye then fixed, permeabilized and stained for intracellular IFNγ.
CD56^+ NK cells were differentiated as described in Examples 1 and 2 in the presence of pyrimidoindole compounds and analyzed on day 28 by flow cytometry for the expression of a T cell marker. The analyzed cells were stained for CD3 essentially as described in Example 3. Dead cells were excluded by light scatter profile and 7-AAD or DRAQ7 staining.

[2] = test system: PSC-derived NK cell progenitors; assay: Differentiation of PSC-derived NK cell progenitors to CD56+ cells; format: cell-based, Human; conditions: PSC lines 1C, M001, H1, F016; UM729 during days 24 to 38
Protocol: Three induced pluripotent stem cell (iPSC) lines—WLS-1C, STiPSC M001, and STiPS F016—and one embryonic stem cell (ESC) line—H1 were maintained in mTeSR™ 1. The PSC were harvested and dissociated using accutase into single cell suspensions and were filtered using 37 μm reversible strainer (STEMCELL Technologies).
Single cell suspensions of PSC were seeded into AggreWell plates (STEMCELL Technologies) to form 500-cell aggregates. The seeded cells were cultured in a mesoderm differentiation medium and 10 μM Y027632 (STEMCELL Technologies). After 3 days (i.e. on day 3) in culture the medium was changed to induce hematopoietic lineage differentiation. After 7 days (i.e. on day 10) in culture the aggregates were harvested and dissociated using collagenase II and a trypsin-containing solution.
Dissociated cells were enriched for CD34^+ cells using EasySep™ Human CD34 Positive Selection Kit II (STEMCELL Technologies, catalogue #17856). […]
The cells were stained for CD56 essentially as described in Example 3 and analyzed for frequency of CD56^+ cells and yield of CD56^+ cells per 5×10^4 input PSC-derived CD34^+ cells. […]

[3] = cells differentiated in the presence of 1 μM UM729, day 28

For `COC(=O)c1ccc2c(c1)[nH]c1ncnc(NCCCN3CCCCC3)c12` [UM729, methyl 4-((3-(piperidin-1-yl)propyl)amino)-9H-pyrimido[4,5-b]indole-7-carboxylate], the “Analyzed cells co-expressing CD56 and CD16” value [1, 3] was “approximately 17%”, the “Analyzed cells co-expressing CD56 and CD94” value [1, 3] was “approximately 18%” and the “Analyzed cells co-expressing CD56 and KIR” value [1, 3] was “approximately 10%”. For the same compound, the “Analyzed cells co-expressing CD56 and NKG2D” value [1, 3] was “approximately 50%”, the “Analyzed cells co-expressing CD56 and NKp30” value [1, 3] was “approximately 80%” and the “Analyzed cells co-expressing CD56 and NKp44” value [1, 3] was “approximately 80%”. For the same compound, the “Analyzed cells co-expressing CD56 and NKp46” value [1, 3] was “approximately 70%”, the “Differentiated CD56+ NK cells expressing intracellular IFNγ upon stimulation” value ([1]; cells differentiated in the presence of 1 μM UM729, PMA/Ionomycin 2 hours, then Brefeldin A 2 hours) was “approximately 58%” and the “Expression of CD3 among differentiated cells” value ([1]; cord blood sample of a second donor, 1 μM UM729, day 28) was “virtually absent; also recorded: do not express CD3”. The “Frequency of CD56+ cells compared to absence of UM729” value [2] was “increased” and the “Yield of CD56+ cells per 5×10^4 input PSC-derived CD34+ cells compared to absence of UM729” value [2] was “increased”.

— patent publication US12723233B2, “Media and methods for differentiating natural killer cells” (STEMCELL Technologies Canada Inc., priority 2018, dated 2026)
